The term EC50 denotes the concentration at which the effect is half-maximal.

From patent publication US20240059682A1, “THYROID HORMONE RECEPTOR BETA AGONIST COMPOUNDS” (Terns Pharmaceuticals, Inc., priority 2021, published 2024) come the findings set out here.

Test [1] addresses THR-β/RXR-α (Homo sapiens (Human), UniProt P10828). The test is described as follows: THR/RXR heterodimer assay (THR-β/RXR-α). In kind it is biochemical. The conditions noted are these: RXR heterodimer assay.
The target in test [2] is THR-α/RXR-α (Homo sapiens (Human), UniProt P10827). Put plainly: THR/RXR heterodimer assay (THR-α/RXR-α). In kind it is biochemical. The conditions noted are these: RXR heterodimer assay; read-out: EC50 THRα-het.
Chain of THR-α/RXR-α (P10827 other isoform, or with tags, fused parts or gaps): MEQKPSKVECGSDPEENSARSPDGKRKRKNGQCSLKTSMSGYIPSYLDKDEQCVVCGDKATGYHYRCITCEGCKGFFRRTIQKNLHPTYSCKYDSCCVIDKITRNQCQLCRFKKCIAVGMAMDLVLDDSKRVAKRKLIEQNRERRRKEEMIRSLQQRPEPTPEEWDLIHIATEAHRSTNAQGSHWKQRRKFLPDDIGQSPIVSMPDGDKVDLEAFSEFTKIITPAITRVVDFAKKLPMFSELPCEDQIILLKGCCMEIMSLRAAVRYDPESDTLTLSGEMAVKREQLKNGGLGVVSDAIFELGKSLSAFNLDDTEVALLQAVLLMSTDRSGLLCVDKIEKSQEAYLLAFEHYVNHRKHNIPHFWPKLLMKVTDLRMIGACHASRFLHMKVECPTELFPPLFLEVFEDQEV
Chain of THR-α/RXR-α (P19793 225-462 partner): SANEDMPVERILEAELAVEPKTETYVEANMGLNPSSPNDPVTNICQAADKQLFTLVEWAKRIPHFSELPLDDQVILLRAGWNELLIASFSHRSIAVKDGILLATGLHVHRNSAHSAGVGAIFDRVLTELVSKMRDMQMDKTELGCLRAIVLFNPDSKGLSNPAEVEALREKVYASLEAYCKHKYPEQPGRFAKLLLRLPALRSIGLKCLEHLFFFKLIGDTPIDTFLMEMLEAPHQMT
Chain of THR-α/RXR-α (Q15596 679-703 partner): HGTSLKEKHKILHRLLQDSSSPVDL

Chain of THR-β/RXR-α (P10828 202-461): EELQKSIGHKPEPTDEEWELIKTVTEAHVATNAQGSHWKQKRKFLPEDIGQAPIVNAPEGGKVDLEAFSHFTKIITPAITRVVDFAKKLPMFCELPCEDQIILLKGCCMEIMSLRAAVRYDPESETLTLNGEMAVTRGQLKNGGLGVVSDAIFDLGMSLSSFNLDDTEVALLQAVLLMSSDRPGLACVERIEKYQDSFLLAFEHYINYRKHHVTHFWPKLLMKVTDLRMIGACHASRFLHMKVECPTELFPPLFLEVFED
Chain of THR-β/RXR-α (P19793 225-462 partner): as the sequence (P19793 225-462 partner) above

In test [1] (normalized to T3 activity), `COc1nc2ccc(Oc3c(Cl)cc(NC(=O)c4noc(=O)[nH]4)cc3Cl)cc2n1C1(C(F)(F)F)CC1` [Example 24] had a THRß-Selectivity of 6.7. For the same molecule, the EC50 was found to be 0.48 µM in test [1] (read-out: EC50 THRß-het) and 3.23 µM in test [2].
